Consider five compounds from paper PMC6389625, “The Impact and Mechanism of a Novel Allosteric AMPA Receptor Modulator LCX001 on Protection Against Respiratory Depression in Rodents” (Frontiers in Pharmacology, 2019).

One data set relates to male KM mice. Description: Acetic acid writhing test. The format is in vivo, mouse. As to conditions: for inhibition of acetic acid-induced writhing: 10 min before 0.6% acetic acid. (Writhing tests count abdominal constrictions after an irritant is injected.)
The subject of a further data set is female KM mice. Description: Hot-plate test. The format is in vivo, mouse.
The subject of another data set is AMPA receptors. Description: [3H]AMPA binding to brainstem membranes. Further details: species or system rat. To be noted: for specific [3H]AMPA binding: 200 nM [3H]AMPA. As for the experimental part: Adult male SD rats (220–250 g) were euthanized by decapitation. The brainstems were dissected and homogenized for 2 min in 15 volumes of ice-cold 50 mM Tris–HCl buffer (pH 7.4) at 4°C. The homogenates were centrifuged at 1,000 g for 10 min, and the supernatants were collected and centrifuged at 40,000 g for 20 min. The pellets were dispersed in 50 mM Tris-HCl pH 7.4 and centrifuged at 40,000 g for 20 min. The last procedures were repeated a third time with a total of four washes to eliminate endogenous glutamate from the tissue. The resulting pellets were suspended in eight volumes of 0.3 M sucrose, then stored at –70°C until use. […] The binding reaction was performed in disposable glass culture tubes at 25°C for 60 min. […] The pellets were washed with ice-cold Tris-HCl pH 7.4 three times and dried with a piece of tissue paper. […] The binding activity on the filters was detected using a LS6500 scintillation counter (Beckman, Shanghai, China). […] Data are presented as the mean ± standard error of the mean (SEM). In the acetic acid writhing and hot-plate tests, experiments were performed blind. Compounds were injected by one researcher and the behavior or data was recorded by another researcher. The significance of change in respiratory parameters was evaluated by repeated measures two-way ANOVA (dose × time) followed by Bonferroni post-hoc tests for comparisons between groups. In the analysis of the acetic acid writhing test, hot-plate test and [^3H]AMPA binding assay, statistical evaluation between the treated groups and control group was performed by one-way ANOVA followed by Dunnett’s test. For saturation binding with [^3H]AMPA, Kd and Bmax values of different groups were obtained from fits to saturation binding curves with the KaleidaGraph programme. For whole-cell patch-clamp recordings, dose-response curves were fitted to the Hill equation using Origin 9.0 software (Originlab, MA, United States) and statistical significance was determined by one-way ANOVA followed by Dunnett’s test. For live cell imaging, two-way ANOVA followed by Bonferroni post-hoc tests was used to compare the treated groups and vehicle group.

The target in data set [1] is T1, recombinant homomeric GluA2(R)flop receptor (Rattus norvegicus, UniProt P19491, Q607R).
T1 construct: rat AMPA-GluA2(R)flop cDNA corresponding to the entire coding region; expressed in transfected cells
T1 sequence (P19491 22-883 Q607R): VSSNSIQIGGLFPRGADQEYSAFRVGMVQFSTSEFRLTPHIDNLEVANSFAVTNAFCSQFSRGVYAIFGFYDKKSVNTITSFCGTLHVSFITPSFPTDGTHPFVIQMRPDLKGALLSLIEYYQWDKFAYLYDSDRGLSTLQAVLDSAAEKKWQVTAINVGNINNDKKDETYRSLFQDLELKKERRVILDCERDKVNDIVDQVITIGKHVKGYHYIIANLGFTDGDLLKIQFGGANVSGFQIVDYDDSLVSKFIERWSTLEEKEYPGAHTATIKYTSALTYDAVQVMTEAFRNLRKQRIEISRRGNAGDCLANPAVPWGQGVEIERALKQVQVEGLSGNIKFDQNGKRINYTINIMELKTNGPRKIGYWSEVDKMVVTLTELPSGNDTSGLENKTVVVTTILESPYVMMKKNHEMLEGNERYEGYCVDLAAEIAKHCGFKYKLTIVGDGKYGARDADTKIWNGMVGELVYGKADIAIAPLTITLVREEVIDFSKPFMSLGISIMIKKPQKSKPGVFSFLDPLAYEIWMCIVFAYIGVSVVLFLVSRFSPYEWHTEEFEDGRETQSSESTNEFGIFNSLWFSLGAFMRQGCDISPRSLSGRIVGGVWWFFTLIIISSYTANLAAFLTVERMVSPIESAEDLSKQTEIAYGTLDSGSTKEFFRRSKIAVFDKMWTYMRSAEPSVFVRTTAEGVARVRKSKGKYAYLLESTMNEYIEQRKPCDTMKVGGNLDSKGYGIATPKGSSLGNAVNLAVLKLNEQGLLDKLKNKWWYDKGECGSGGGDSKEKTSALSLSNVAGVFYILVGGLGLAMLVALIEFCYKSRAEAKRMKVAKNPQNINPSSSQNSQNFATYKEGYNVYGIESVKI
Description: Whole-cell patch-clamp recording of glutamate-evoked currents in HEK293 cells. Type of data set: cell-based. On the procedure: A wild-type rat AMPA-GluA2(R)flop cDNA corresponding to the entire coding region was generated and cloned into the pcDNA^TM3.1(+) vector (Invitrogen, China, Catalog no. V790-20) by Sangon Biotech Co., Ltd. (Shanghai, China). […] For stable transfection, HEK293 cells (3 × 10^4 cells/well) were seeded in 24-well plates the day before transfection. The cells were grown to 70–90% confluency, and the transfection was performed by adding 1 μg of GluA2 expressing vector per well. Twenty-four hours after transfection, the normal medium was replaced with DMEM/F12 (Gibco, Shanghai, China) growth medium supplemented with 1.0 mg/ml G418 (Gibco, Shanghai, China) and cultured for 7 days. The surviving cells were pelleted and dispersed (100 cells/20 ml), and then seeded into 96-well plates in DMEM/F12 medium containing 500 μg/ml G418. Discrete colonies were picked after 15 days of selection. Western blotting and whole-cell patch-clamp recording were performed to test expression of the AMPA receptor GluA2 subunit and formation of an AMPA-GluA2 ion channel. G418 was kept at 500 μg/ml for the maintenance of stably transfected clones.
HEK293 cells that stably expressed AMPA-GluA2 receptors were seeded into the recording chamber 2 days before patch-clamp recordings, and the experiments were conducted in whole-cell configuration. Thin-walled borosilicate glass (Sutter Instrument, CA, United States) was pulled to make patch pipettes. […] The holding potential was set as -80 mV by an Axopatch-700B amplifier (Axon Instruments, CA, United States), and pClamp8 software (Axon Instruments, CA, United States) was used for data acquisition. Currents were recorded and digitized at 10 kHz. […] LCX001 and CX614 were dissolved in dimethyl sulfoxide (DMSO) before dilution with external bath solution (DMSO final concentration 0.5%). Dose-response curves were fitted to the Hill equation using Origin 9.0 software.
For orientation: The patch-clamp technique gives a direct electrical read-out from membranes.

For another data set, the system named is SEP-GluA1. Description: Live cell imaging of SEP-GluA1 surface expression in primary medulla oblongata neurons. The format is cell-based, rat. To be noted: 47 μM final, added at 2 min; P > 0.05.
The target in the next data set is T2, SEP-GluA2(R) (Rattus norvegicus, UniProt P19491, Q607R).
T2 construct: adenovirus by Hanbio biotechnology plasmid #24001; host or cells: primary medulla oblongata neurons of neonatal SD rats
T2 sequence (P19491 22-883 Q607R): as above
Description: Live cell imaging of SEP-GluA2(R) surface expression in primary medulla oblongata neurons. To be noted: 47 μM final, added at 2 min. The format is cell-based.

Data set [2] concerns intracellular calcium concentration ([Ca^2+]i) of cultured medullary neurons. Put plainly: Ca2+ imaging (Fluo-4 NW) in primary medulla oblongata neurons. The format is cell-based, rat. As to conditions: 40 μM final at 7 min, after glutamate 18 μM and fentanyl or TH-030418 42 μM.
The test system of another data set is rodents. Description: Observation of over-excitability after administration. The format is in vivo. As to conditions: up to 60 mg/kg.
Data set [3] has as its system unanaesthetised adult male SD rats.
Another data set deals with rat dentate gyrus. Further details: method as in Street et al., 2008; Mueller and Street, 2012. As to conditions: ref Street et al., 2008, Mueller and Street, 2012; cited from earlier work.

In the case of `CN(C(=O)c1ccc2nonc2c1)[C@H]1CC[C@H](O)CC1` [LCX001, N-((1r,4r)-4-hydroxycyclohexyl)-N-methylbenzo[c][1,2,5]oxadiazole-5-carboxamid], the “inhibition of acetic acid-induced writhing” value is given as 30.76 ± 12.75% in the data set on male KM mice (1.5 mg/kg i.v.), 41.43 ± 11.32% in the data set on male KM mice (3 mg/kg i.v.), 85.35 ± 9.53% in the data set on male KM mice (6 mg/kg i.v.) and 94.78 ± 2.74% in the data set with male KM mice (12 mg/kg i.v.). For the same compound, in the data set with male KM mice (LCX001 12 mg/kg i.v. 10 min before morphine 2.5 mg/kg s.c., P > 0.05), the “impact on the analgesic effect of morphine (writhing test)” value is listed as “no impact”. Also, the “%MPE compared with vehicle” value in the data set on female KM mice (1.5 mg/kg i.v., 10 min after administration, P > 0.05) is listed as “no effect”; with female KM mice (3 mg/kg i.v., 10 min after administration, P > 0.05), “no effect”. Besides, the “%MPE” value with female KM mice (6 mg/kg i.v., 10 min after administration) is recorded as 30.18 ± 10.56%; in the data set with female KM mice (12 mg/kg i.v., 10 min after administration), 65.27 ± 12.22%. Further, in the data set with female KM mice (LCX001 12 mg/kg i.v. 10 min before morphine 10 mg/kg s.c., P > 0.05), the “impact on the analgesic effect of morphine (hot-plate test)” value is given as “no impact”. The “specific [3H]AMPA binding” value in the data set with AMPA receptors (LCX001 10^-4 M, control 1595 ± 30) is given as 2095 ± 87 cpm/mg protein; in the data set on AMPA receptors (LCX001 10^-5 M, control 1595 ± 30) it was 1964 ± 27 cpm/mg protein; in the data set with AMPA receptors (LCX001 10^-6 M, control 1595 ± 30), 1857 ± 20 cpm/mg protein; in the data set with AMPA receptors (LCX001 10^-9–10^-7 M, control 1595 ± 30 cpm/mg protein) it was “unchanged”. Further, the “Bmax of [3H]AMPA after pre-incubation with LCX001” value with AMPA receptors (LCX001 10^-4 M, without LCX001 6.89 ± 0.11) is reported as 7.77 ± 0.17 pmol/mg of protein. Besides, in [1] (100 μM modulator), the “nH of glutamate concentration-response curve in the presence of modulator” value was 0.84. In addition, the “glutamate evoked peak amplitude” value turned out to be 711 ± 20 pA in [1] (3.5 mM glutamate, 100 μM modulator, control 432 ± 27 pA) and 1120 ± 60 pA in [1] (10 mM glutamate, 100 μM modulator, control 752 ± 35 pA). Also, the “current induced by compound alone” value in data set [1] (in the absence of glutamate) was “no current”. For the same compound, the SEP-GluA1 fluorescence intensity result with SEP-GluA1 is “no impact”. For the same compound, the SEP-GluA2 fluorescence intensity entry at SEP-GluA2(R) was “significant and fast increase”. In addition, the “effect on the increased level of [Ca^2+]i in response to fentanyl and TH-030418” value in data set [2] is reported as “significantly blocked”. Moreover, in the data set with rodents, the over-excitability after administration entry was “no evidence of over-excitability”. The “effect on Nembutal-induced respiratory depression” value in [3] (LCX001 10 mg/kg i.v. 5 min after Nembutal 80 mg/kg i.p., P < 0.05) is recorded as “ameliorated respiratory depression”. In addition, in data set [3] (LCX001 10 mg/kg i.v. 5 min after TH-030418 20 μg/kg i.v., P < 0.05), the “effect on TH-030418-induced respiratory depression” value is “alleviated the reduction of respiratory parameters”. In addition, the “effect on fentanyl-induced respiratory depression (respiratory frequency, minute ventilation)” value in data set [3] (LCX001 10 mg/kg i.v. 5 min after fentanyl 120 μg/kg s.c., P < 0.05) was “effectively countered the inhibition of respiratory frequency and minute ventilation”. Also, the “effect on propofol-induced respiratory depression” value in data set [3] (LCX001 10 mg/kg i.v. 10 min before propofol 30 mg/kg i.v., P < 0.05) was “reversed the acute reduction of respiratory frequency and minute ventilation”. Besides, the “increase in the amplitude of synaptic currents” value with rat dentate gyrus was 21%.
With `CCCC(C)C1(CC)C(=O)NC(=O)NC1=O` (stereo not shown) [Nembutal, reference compound], the respiratory frequency in data set [3] (male, SD, rat, in vivo) is 70.3 ± 2.7 % of control.
As to `Cc1o[nH]c(=O)c1CC(N)C(=O)O` (stereo not shown) [[^3H]AMPA, reference compound], the “Bmax of [3H]AMPA saturation binding” value in the data set with AMPA receptors (without LCX001, one-site model) is reported as 6.89 ± 0.11 pmol/mg of protein. Further, on AMPA receptors (without LCX001, one-site model, read-out: Kd of [3H]AMPA saturation binding), the Kd came out at 0.171 ± 0.005 µM.
As for `CN1CC[C@]23c4c5ccc(O)c4O[C@H]2[C@@H](O)C=C[C@H]3[C@H]1C5` [morphine, reference compound], in the data set on female KM mice (10 mg/kg s.c., 30 min after injection, 55°C), the “%MPE” value is reported as “about 100%”.
As for `CC(C)c1cccc(C(C)C)c1O` [propofol, reference compound], in data set [3] (male, SD, rat, in vivo), the “duration of propofol-mediated respiratory depression” value lay within 15 to 25 min and the respiratory frequency is 53.6 ± 5.8 % of control.
